In brackets after ≈: the same amount, converted by molar mass. Like-named read-outs stand apart in the source and are kept apart here.
Experiments:
Mycoplasma hyorhinis = assay: in vitro tube dilution test (MIC); assay type: cell-based
Description: (§1) Our compound, 1-(2-hydroxyethyl)-3-nitro-4-pyrazolecarboxamide, has been extensively tested in vitro to determine the range of microorganisms against which it is active. The table of data below reports the minimum inhibitory concentration (MIC) at which the compound is effective in controlling a variety of microorganisms in a standard tube dilution test system. The MIC is reported as micrograms of compound per milliliter.
(§2) The other preferred compounds of our invention have also been thoroughly tested in the in vitro tube dilution test.

[1] = test system: Salmonella typhimurium 1335; assay: in vitro tube dilution test (MIC); assay type: cell-based; settings: Salmonella enterica; Salmonella typhimurium 1335, tube dilution
Description: as §1, §2

[2] = test system: Salmonella heidelburg 1593; assay: in vitro tube dilution test (MIC); assay type: cell-based; settings: Salmonella heidelburg 1593, tube dilution
Description: as §1, §2

Salmonella pullorum Ill. = assay: in vitro tube dilution test (MIC); assay type: cell-based; settings: Salmonella enterica
Description: as §1, §2

Pseudomonas sp. = assay: in vitro tube dilution test (MIC); assay type: cell-based
Description: as §1, §2

S. typhimurium = assay: Salmonella typhimurium in chickens, medicated feed; assay type: in vivo, chicks; settings: 200 gm./ton feed; for Avg. Wt.: surviving chicks
[3] = test system: Staphylococcus aureus 3055; assay: in vitro tube dilution test (MIC); assay type: cell-based; settings: Staphylococcus aureus 3055, tube dilution
Description: as §2

Escherichia coli 0127 = assay: in vitro tube dilution test (MIC); assay type: cell-based; settings: Escherichia coli 0127, tube dilution
Description: as §2

[4] = test system: Mycoplasma gallisepticum 38502; assay: in vitro tube dilution test (MIC); assay type: cell-based; settings: Mycoplasmoides gallisepticum; Mycoplasma gallisepticum 38502, tube dilution
Description: as §2

avian E. coli = assay: Colibacillosis in chickens, medicated feed; assay type: in vivo
Vibrio coli 3811 = assay: in vitro tube dilution test (MIC); assay type: cell-based; settings: Campylobacter coli; Vibrio coli 3811, tube dilution; read-out: MIC
[5] = test system: Staphylococcus aureus sp. 1130; assay: in vitro tube dilution test (MIC); assay type: cell-based; settings: read-out: MIC
Salmonella dublin = assay: in vitro tube dilution test (MIC); assay type: cell-based; settings: Salmonella enterica; Salmonella dublin, tube dilution; read-out: MIC
Erwinia amylovora = assay: Fire blight of pear, in vivo greenhouse test
Experimental: An in vivo test was conducted against the fire blight organism, Erwinia amylovora. Plants infected with E. amylovora were sprayed with aqueous dispersions containing 100 ppm. and 500 ppm. of the test compounds. […] The compounds are identified below by their compound numbers in the above listing.

Salmonella typhimurium = assay: Salmonellosis in chickens, single injection to day-old chicks; assay type: in vivo; settings: Salmonella enterica, TYPHIMURIUM, 168 h; single injection of 60 mg./kg.; seven days; read-out: Survival (converted)
Method in brief: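 Five day-old chicks per group received one injection of compound at 60 mg./kg., then were challenged next day by subcutaneous S. typhimurium at a dose lethal to most or all untreated controls. Read-out is survivor count, pooled over repeat groups, with untreated challenged controls run in each batch.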

H. meleagridis = assay: Blackhead in poultry, turkeys; assay type: in vivo
Experimental: One- to three-week-old chicks and turkey poults were obtained from homogeneous source flocks and allocated into treatment groups. Some groups were held as infected, untreated controls, and other groups were treated with 3-nitropyrazoles by administering the compounds in the birds' feed. Various concentrations of the pyrazoles were administered to determine the least concentration which protected the birds. A few days after the administration of medicated feed began, all of the birds were challenged by rectally administering a suspension of at least 5,000 H. meleagridis protozoa per chick. The challenge organisms had been originally obtained from infected chickens, and were grown in vitro to provide a supply of organisms for testing.
The birds were held for about seven days after the challenge was administered, during which time the administration of pyrazole-medicated feed was continued. Then all of the chicks, including the untreated, infected controls, were sacrificed and necropsied. The cecum and the liver of each bird were examined for characteristic H. meleagridis lesions.
For each compound, the lowest feed concentration which gave an active response is indicated. While feed consumption data were not taken during the tests, the birds ate at such a rate that a feed concentration of 0.02 percent is equivalent to a treatment rate of about 10 mg./kg./day.

P. multocida [6] = assay: Mice infected with P. multocida, compound in drinking water; assay type: in vivo; settings: 7 days
Experimental: Some of the 3-nitropyrazoles were also administered to mice infected with P. multocida. Tests were conducted in which the pyrazoles were administered both by injection and in the drinking water.
The table below reports results of tests in which the compound was administered in the water. Groups of 10 standardized white mice were segregated, and each mouse was infected by injecting a broth culture of P. multocida subcutaneously. The administration of the test compounds was begun at the same time the mice were infected by adding a known amount of the test compound to the drinking water of the mice. One group of infected control mice received no treatment. The mice were observed, and the test was concluded at the end of 7 days. The number of mice in each group which survived the P. multocida infection was recorded.

Pasteurella multocida = assay: in vitro tube dilution test (MIC); assay type: cell-based; settings: tube dilution, read-out: MIC
Method in brief: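 Standard tube dilution test; MIC is the lowest compound concentration controlling growth, given in μg/mL.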

P. multocida [7] = assay: Mice infected with P. multocida, compound injected subcutaneously; assay type: in vivo
Experimental: A second test was conducted in much the same way, except that the 3-nitropyrazole was injected to the treated mice subcutaneously at the same time they were infected with the P. multocida culture.

Escherichia coli = assay: in vitro tube dilution test (MIC); assay type: cell-based; settings: tube dilution, read-out: MIC
Method in brief: (§3)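 Standard tube dilution test; MIC reported as micrograms of compound per milliliter.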

Mycoplasma gallisepticum = assay: in vitro tube dilution test (MIC); assay type: cell-based; settings: Mycoplasmoides gallisepticum; Mycoplasma gallisepticum, tube dilution; read-out: MIC
Method in brief: as §3

large crabgrass = assay: herbicidal activity, application to plants; assay type: in vivo; settings: applied to foliage of growing plant at 1 lb./acre
Description: The herbicidal compounds of our invention have shown the ability to control undesired plants at levels as low as 1 lb./acre. Herbicidal activity is obtained when the 3-nitropyrazole herbicide is applied to the plants to be controlled in the conventional manner, by direct application as a spray or dry formulation to the plant or its supporting soil.

Streptococcus sp. 80 = assay: in vitro tube dilution test (MIC); assay type: cell-based; settings: Streptococcus sp. 80, tube dilution; read-out: MIC
Description: Other compounds of our invention have also been tested in the tube dilution test and shown to have in vitro activity against a number of microorganisms. The table below reports tests of a number of exemplary compounds against exemplary microorganisms. The compounds are identified by their numbers in the listing above. The data are reported as the MIC in micrograms per milliliter against the named exemplary microorganisms.

[8] = test system: Trypanosoma cruzi (BHC/10 strain); assay: use against Trypanosoma cruzi in rodents; assay type: in vivo; settings: 12.5 mg./kg. for 10 days
Experimental: Some 3-nitropyrazoles have been used against Trypanosoma cruzi in rodents. The 3-nitro-1-vinyl-4-pyrazolecarboxamide killed 91 percent of T. cruzi of the BHC/10 strain when administered at 12.5 mg./kg. for 10 days.

[9] = 100 gm./ton, further test, about 5 weeks of age
[10] = 200 gm./ton, further test, about 5 weeks of age
[11] = 300 gm./ton feed, about 5 weeks old, 10^-2 dilution challenge, first test
[12] = Staphylococcus aureus, SP.1130, Staphyloccocus 1130, tube dilution
[13] = Staphylococcus aureus sp. 1130, tube dilution

| Structure (SMILES) | MIC (Mycoplasma hyorhinis) [µg/mL] | MIC [1] [µg/mL] | MIC [2] [µg/mL] | MIC (Salmonella pullorum Ill.) [µg/mL] | MIC (Pseudomonas sp.) [µg/mL] | Survival (S. typhimurium; Test C) | Avg. Wt. (S. typhimurium; Test C) [gm.] | MIC [3] [µg/mL] | MIC (Escherichia coli 0127) [µg/mL] | MIC [4] [µg/mL] | Avg. Wt. (avian E. coli; [9]) [gm.] | E. coli Lesions (avian E. coli; [9]) | Mortality (avian E. coli; [9]) | Avg. Wt. (avian E. coli; [10]) [gm.] | E. coli Lesions (avian E. coli; [10]) | Mortality (avian E. coli; [10]) | MIC (Vibrio coli 3811) [µg/mL] | MIC (Salmonella dublin) [µg/mL] | Percent Control of fire blight (Erwinia amylovora; 100 ppm.) [%] | Percent Control of fire blight (Erwinia amylovora; 500 ppm.) [%] | other results |
| --- | --- | --- | --- | --- | --- | --- | --- | --- | --- | --- | --- | --- | --- | --- | --- | --- | --- | --- | --- | --- | --- |
| C=CCn1cc(C(N)=O)c([N+](=O)[O-])n1 [Compound 16, 1-allyl-3-nitro-4-pyrazolecarboxamide] | 50 (≈ 255 µM) | 6.25 (≈ 31.9 µM) | 25 (≈ 127 µM) | < 1.56 | 12.5 (≈ 63.7 µM) | 25/48 | 64 | 10 (≈ 51 µM) | 100 (≈ 510 µM) | 50 (≈ 255 µM) | 1112 | 40/40 | 16/40 | 1266 | 31/40 | 11/40 | 3.12 (≈ 15.9 µM) | 6.25 (≈ 31.9 µM) | 100 | 60 | Survival (S. typhimurium; Test B): 26/36; Avg. Wt. (S. typhimurium; Test B): 88 gm.; E. coli Lesions (avian E. coli; [11]): 16/30; Mortality (avian E. coli; [11]): 0/30; Wt. (avian E. coli; [11]): 1090 gm.; MIC [5, 12]: 6.25 µg/mL (≈ 31.9 µM); responders at 60 mg/kg (Salmonella typhimurium): 100%; Active Level (lowest feed concentration which gave an active response) (H. meleagridis): .02% |
| CC(=O)OCCn1cc(C(N)=O)c([N+](=O)[O-])n1 [Compound 80, 2-(4-carbamoyl-3-nitropyrazol-1-yl)ethyl acetate] | 50 | 12.5 | 12.5 | < 1.56 | 25 | 29/48 | 67 | 10 | 100 | 25 | 1219 | 38/40 | 10/40 | 1308 | 31/40 | 6/40 | 12.5 | 12.5 | 33 | 50 | Survival (P. multocida [6]; 0.1 gm./gal. in drinking water): 9/10; Survival (P. multocida [6]; 0.2 gm./gal. in drinking water): 6/10; MIC (Pasteurella multocida): 25 µg/mL; Survival (P. multocida [7]; 2.5 mg./kg. subcutaneous): 4/10; Survival (P. multocida [7]; 5.0 mg./kg. subcutaneous): 3/10; Survival (P. multocida [7]; 10.0 mg./kg. subcutaneous): 8/10; Survival (P. multocida [7]; 25.0 mg./kg. subcutaneous): 9/10; E. coli Lesions (avian E. coli; [11]): 9/30; Mortality (avian E. coli; [11]): 1/30; Wt. (avian E. coli; [11]): 1139 gm.; MIC [5, 12]: 3.12 µg/mL; responders at 60 mg/kg (Salmonella typhimurium): 70% |
| CCn1cc(C#N)c([N+](=O)[O-])n1 [Compound 1, 1-ethyl-3-nitro-4-pyrazolecarbonitrile] |  |  |  |  |  |  |  |  |  |  |  |  |  |  |  |  | 12.5 (≈ 75.2 µM) | 100 (≈ 602 µM) |  |  | MIC (Escherichia coli): 100 µg/mL (≈ 602 µM); MIC (Mycoplasma gallisepticum): > 50 µg/mL; control of large crabgrass (large crabgrass): kills large crabgrass; MIC (Streptococcus sp. 80): 100 µg/mL (≈ 602 µM); MIC [5, 13]: 100 µg/mL (≈ 602 µM) |
| C=Cn1cc(C(N)=O)c([N+](=O)[O-])n1 [Compound 81, 3-nitro-1-vinyl-4-pyrazolecarboxamide] |  |  |  |  |  |  |  |  |  |  | 1109 | 23/40 | 5/40 | 918 | 20/40 | 6/40 | 25 (≈ 137 µM) | 1.56 (≈ 8.56 µM) | 100 | 60 | MIC (Escherichia coli): 1.56 µg/mL (≈ 8.56 µM); MIC (Mycoplasma gallisepticum): 1.56 µg/mL (≈ 8.56 µM); MIC (Pasteurella multocida): 1.56 µg/mL (≈ 8.56 µM); MIC (Streptococcus sp. 80): 25 µg/mL (≈ 137 µM); percent of T. cruzi killed [8]: 91%; MIC [5, 13]: 1.56 µg/mL (≈ 8.56 µM) |
